Five compounds from PubChem BioAssay AID1259407 (Chemical Carcinogenesis Research Information System (CCRIS), 2018) can be followed below.

Activity calls are given as the source filed them. How the calls were made is not given here.

The test system of the data set is CCRIS mutagenicity, Ames/micronucleus/aberration tests. Kind of data set: CCRIS mutagenicity studies.
[1] abbreviates: Test System: AMES SALMONELLA TYPHIMURIUM, Strain/Indicator: TA98, Metabolic Activation: NONE, Method: STANDARD PLATE.
The mark [2] stands for this setting: Test System: AMES SALMONELLA TYPHIMURIUM, Strain/Indicator: TA100, Metabolic Activation: NONE, Method: STANDARD PLATE.
[3] abbreviates: Test System: AMES SALMONELLA TYPHIMURIUM, Strain/Indicator: TA98, Metabolic Activation: NONE, Method: PREINCUBATION
[4] abbreviates: Test System: AMES SALMONELLA TYPHIMURIUM, Strain/Indicator: TA98, Metabolic Activation: RAT, LIVER, S-9, AROCLOR 1254, Method: PREINCUBATION
[5] abbreviates: Test System: AMES SALMONELLA TYPHIMURIUM, Strain/Indicator: TA100, Metabolic Activation: NONE, Method: PREINCUBATION
Where [6] appears, read: Test System: AMES SALMONELLA TYPHIMURIUM, Strain/Indicator: TA100, Metabolic Activation: RAT, LIVER, S-9, AROCLOR 1254, Method: PREINCUBATION
Setting [7] is: Test System: AMES SALMONELLA TYPHIMURIUM, Strain/Indicator: TA102, Metabolic Activation: NONE, Method: PREINCUBATION
[8] abbreviates: Test System: AMES SALMONELLA TYPHIMURIUM, Strain/Indicator: TA102, Metabolic Activation: RAT, LIVER, S-9, AROCLOR 1254, Method: PREINCUBATION

Take `Cc1ccc2nsc(NC(=O)C(Cl)(Cl)Cl)c2c1`: the mutagenic call under setting [1] was “active; positive”; the mutagenic call (Test System: AMES SALMONELLA TYPHIMURIUM, Strain/Indicator: TA98, Metabolic Activation: S-9, Method: STANDARD PLATE) is “active; positive”; the mutagenic call under setting [2] was “active; positive”; the mutagenic call (Test System: AMES SALMONELLA TYPHIMURIUM, Strain/Indicator: TA100, Metabolic Activation: S-9, Method: STANDARD PLATE) is “active; positive”; the mutagenic call (Test System: AMES SALMONELLA TYPHIMURIUM, Strain/Indicator: TA1535, Metabolic Activation: NONE, Method: STANDARD PLATE) is “inactive; negative”; the mutagenic call (Test System: AMES SALMONELLA TYPHIMURIUM, Strain/Indicator: TA1535, Metabolic Activation: S-9, Method: STANDARD PLATE) is “inactive; negative”. Besides, the mutagenic call runs as follows: (Test System: AMES SALMONELLA TYPHIMURIUM, Strain/Indicator: TA1537, Metabolic Activation: NONE, Method: STANDARD PLATE) “inactive; negative”; (Test System: AMES SALMONELLA TYPHIMURIUM, Strain/Indicator: TA1537, Metabolic Activation: S-9, Method: STANDARD PLATE) “inactive; negative”.
Consider `C/C=C/Cl`, for which the mutagenic call is “active; positive” (Test System: AMES SALMONELLA TYPHIMURIUM, Strain/Indicator: TA100, Metabolic Activation: NONE, Method: DESICCATOR) and “active; positive” (Test System: AMES SALMONELLA TYPHIMURIUM, Strain/Indicator: TA100, Metabolic Activation: RAT, LIVER, S-9, PCB OR PHENOBARBITAL, Method: DESICCATOR).
For the compound `Cc1cncc(C)n1`, the mutagenic call under setting [3] was “inactive; negative”; the mutagenic call under setting [1] was “active; positive”; the mutagenic call under setting [4] is “inactive; negative”; the mutagenic call (Test System: AMES SALMONELLA TYPHIMURIUM, Strain/Indicator: TA98, Metabolic Activation: RAT, LIVER, S-9, AROCLOR 1254, Method: STANDARD PLATE) is “inactive; negative”; the mutagenic call under setting [5] was “inactive; negative”; the mutagenic call under setting [2] was “inactive; negative”. For the same compound, the mutagenic call by setting is: under setting [6], “inactive; negative”; (Test System: AMES SALMONELLA TYPHIMURIUM, Strain/Indicator: TA100, Metabolic Activation: RAT, LIVER, S-9, AROCLOR 1254, Method: STANDARD PLATE) “inactive; negative”; under setting [7], “inactive; negative”; under setting [8], “inactive; negative”.
Turning to `COc1ccccc1O`, the mutagenic call (End Point: IN VITRO CHROMOSOMAL ABERRATIONS, Test System: SYRIAN HAMSTER EMBRYO (SHE) CELLS, Metabolic Activation: NONE) was “active; positive (structural changes)”; the mutagenic call (Test System: AMES SALMONELLA TYPHIMURIUM, Strain/Indicator: TA97, Metabolic Activation: HAMSTER, LIVER, S-9, AROCLOR 1254 (10 OR 30%), Method: VAPOR CHAMBER) was “inactive; negative”; the mutagenic call (Test System: AMES SALMONELLA TYPHIMURIUM, Strain/Indicator: TA97, Metabolic Activation: NONE, Method: VAPOR CHAMBER) is “inactive; negative”; the mutagenic call (Test System: AMES SALMONELLA TYPHIMURIUM, Strain/Indicator: TA97, Metabolic Activation: RAT, LIVER, S-9, AROCLOR 1254 (5, 10 OR 30%), Method: VAPOR CHAMBER) was “inactive; negative”; the mutagenic call (Test System: AMES SALMONELLA TYPHIMURIUM, Strain/Indicator: TA98, Metabolic Activation: HAMSTER, LIVER, S-9, AROCLOR 1254 (10 OR 30%), Method: VAPOR CHAMBER) is “inactive; negative”; the mutagenic call (Test System: AMES SALMONELLA TYPHIMURIUM, Strain/Indicator: TA98, Metabolic Activation: HAMSTER, LIVER, S-9, AROCLOR 1254 (30%), Method: PREINCUBATION) was “inactive; negative”. In addition, the mutagenic call reads like this: under setting [3], “inactive; negative”; (Test System: AMES SALMONELLA TYPHIMURIUM, Strain/Indicator: TA98, Metabolic Activation: NONE, Method: VAPOR CHAMBER) “inactive; negative”; (Test System: AMES SALMONELLA TYPHIMURIUM, Strain/Indicator: TA98, Metabolic Activation: RAT, LIVER, S-9, AROCLOR 1254 (10 OR 30%), Method: VAPOR CHAMBER) “inactive; negative”; (Test System: AMES SALMONELLA TYPHIMURIUM, Strain/Indicator: TA98, Metabolic Activation: RAT, LIVER, S-9, AROCLOR 1254 (30%), Method: PREINCUBATION) “inactive; negative”; under setting [4], “inactive; negative”; (Test System: AMES SALMONELLA TYPHIMURIUM, Strain/Indicator: TA100, Metabolic Activation: HAMSTER, LIVER, S-9, AROCLOR 1254 (5, 10 OR 30%), Method: VAPOR CHAMBER) “inactive; negative”. The mutagenic call was “inactive; negative” (Test System: AMES SALMONELLA TYPHIMURIUM, Strain/Indicator: TA100, Metabolic Activation: HAMSTER, LIVER, S-9, AROCLOR 1254 (30%), Method: PREINCUBATION); “inactive; negative” under setting [5]; “inactive; negative” (Test System: AMES SALMONELLA TYPHIMURIUM, Strain/Indicator: TA100, Metabolic Activation: NONE, Method: VAPOR CHAMBER); “inactive; negative” (Test System: AMES SALMONELLA TYPHIMURIUM, Strain/Indicator: TA100, Metabolic Activation: RAT, LIVER, S-9, AROCLOR 1254 (5, 10 OR 30%), Method: VAPOR CHAMBER); “inactive; negative” (Test System: AMES SALMONELLA TYPHIMURIUM, Strain/Indicator: TA100, Metabolic Activation: RAT, LIVER, S-9, AROCLOR 1254 (30%), Method: PREINCUBATION); “inactive; negative” under setting [6]. The mutagenic call is “inactive; negative” under setting [7]; “inactive; negative” under setting [8]; “inactive; negative” (Test System: AMES SALMONELLA TYPHIMURIUM, Strain/Indicator: TA1535, Metabolic Activation: HAMSTER, LIVER, S-9, AROCLOR 1254 (10 OR 30%), Method: VAPOR CHAMBER); “inactive; negative” (Test System: AMES SALMONELLA TYPHIMURIUM, Strain/Indicator: TA1535, Metabolic Activation: NONE, Method: VAPOR CHAMBER); “inactive; negative” (Test System: AMES SALMONELLA TYPHIMURIUM, Strain/Indicator: TA1535, Metabolic Activation: RAT, LIVER, S-9, AROCLOR 1254 (10 OR 30%), Method: VAPOR CHAMBER).
`BrCc1ccc2cccc3c2c1-c1ccccc1-3`: the mutagenic call reads like this: under setting [1], “active; positive”; under setting [2], “active; positive”.
